Laboratory results from patent publication US20220387457A1 (Qlaris Bio, Inc., priority 2020, published 2022).
Read-outs that look alike come from different tables or passages of the source.

Key:
[1] = Plasma pharmacokinetics, 28-day topical ophthalmic dosing in beagle dogs; details: beagle, dog, in vivo
Description: In the study, dogs (3 males and 3 females) received bilateral daily topical administration of 40 μL/eye of 2.0%, 4.0%, or 8.0% as measured in mg/mL (equivalent to 0.8, 1.6, or 3.2 mg CKLP1 per eye) of CKLP1 in phosphate buffered saline. Based on an average male dog weight of 7.9 kg at the start of the study, these doses were equivalent to 0.20 mg/kg, 0.41 mg/kg, or 0.81 mg/kg and based on an average female dog weight of 6.0 kg at the start of the study, these doses were equivalent to 0.27 mg/kg, 0.53 mg/kg, or 1.07 mg/kg. Blood was collected for toxicokinetic analysis pre-dose and at 1, 2, 4, 8, 12, and 24 hours post dosing on days 1 and 28. In addition, 2 animals of each gender were allowed 336 hours (14 days) of recovery time following the final dose, at which point final blood samples were obtained.

[2] = Toxicokinetics after escalating intravenous doses of CKLP1 in beagles; assay type: in vivo, beagle dog; details: beagle, dog, in vivo, iv
Description: Two beagles (one male and one female) were intravenously injected with escalating doses of CKPL1 (0.05 mg/kg, 0.5 mg/kg, 1.5 mg/kg, 3 mg/kg, and 5 mg/kg) to assess the toxicity of CKLP1. The injection was done through the cephalic vein and CKLP1 was administered in a phosphate buffered saline solution ((0.096% sodium phosphate dibasic, 0.089% sodium dihydrogen orthophosphate monohydrate, 0.83% sodium chloride) pH 6.5±0.1 in sterile water for injection USP). The dosing schedule is shown below in Table 3.
The following parameters and endpoints were evaluated: mortality, clinical observations, body and organ weights, and food consumption. Bioanalytical samples for toxicokinetic parameters (for both CKLP1 and leveromakalim) were collected after each dose level (days 1, 3, 8, 10, and 14) at predose, 1, 3, 6, 8, and 24 hours postdose. Animals were released from the study after completion of the bioanalytical sample collection schedule.
Toxicokinetics (TK) were determined based on the individual exposures for each animal on each sampled study day (days 1, 3, 8, 10, and 14). […] Predose samples had no quantifiable exposure in any animal on any day, with the exception of the female dog on day 10. The predose concentration for the female dog on day 10 was excluded from the TK analysis in order to allow for estimation of the IV C0.

[3] = female, topical or ocular, 3.2 mg
[4] = male, topical or ocular, 1.6 mg

SMILES: CC1(C)Oc2ccc(C#N)cc2[C@@H](N2CCCC2=O)[C@@H]1O [Levcromakalim, levcromakalim, reference compound]
- half-life ([1]; mean T1/2 of levcromakalim): 2.06 to 4.9 h
- half-life ([1]; terminal elimination half-life): 2 to 5 h
- concentration at 336 h ([1]; both sexes): < 0.499 ng/mL
- AUC(0-inf) ([1]; female, topical or ocular, 0.27 mg/kg): 96.8 ng·h/mL
- AUC(0-inf) [1, 3]: 304 ng·h/mL
- t1/2 [1, 3]: 2.73 h
- half-life ([1]; female, topical or ocular, 3.2 mg, t1/2): 4.9 h
- AUC(0-inf) ([1]; female, topical or ocular, […]): 131 ng·h/mL
- AUC(0-inf) ([1]; male, topical or ocular): 111 ng·h/mL
- AUC(0-inf) [1, 4]: 185 ng·h/mL
- Tmax [1, 4]: 4 h
- AUC(0-inf) ([1]; male, topical or ocular, 3.2 mg): 371 ng·h/mL
- AUC(0-t) ([2]; both sexes, 3 mg/kg, read-out: AUCTlast at MTD, sex-combined): 431 ng·h/mL
- Cmax ([2]; both sexes, 3 mg/kg, read-out: Cmax at MTD, sex-combined): 35.5 ng/mL
- AUCTlast ([2]; female, 0.5 mg/kg): 81.3 ng·h/mL
- T1/2 ([2]; female, 0.5 mg/kg): 10.3 h
- AUC(0-inf) ([2]; female, 1.5 mg/kg): 272 ng·h/mL
- AUCTlast ([2]; female, 1.5 mg/kg): 241 ng·h/mL
- Cmax ([2]; female, 1.5 mg/kg): 15.6 ng/mL
- T1/2 ([2]; female, 1.5 mg/kg): 7.58 h
- Tmax ([2]; female, 1.5 mg/kg): 3.00 h
- AUC(0-inf) ([2]; female, 3 mg/kg): 404 ng·h/mL
- AUCTlast ([2]; female, 3 mg/kg): 386 ng·h/mL
- Cmax ([2]; female, 3 mg/kg): 28.3 ng/mL
- T1/2 ([2]; female, 3 mg/kg): 5.07 h
- Tmax ([2]; female, 3 mg/kg): 6.00 h
- AUCTlast ([2]; female, 5 mg/kg): 1040 ng·h/mL
- T1/2 ([2]; female, 5 mg/kg): 7.82 h
- AUCTlast ([2]; male, 0.05 mg/kg): 5.04 ng·h/mL
- T1/2 ([2]; male, 0.05 mg/kg): 9.66 h
- AUCTlast ([2]; male, 0.5 mg/kg): 45.5 ng·h/mL
- T1/2 ([2]; male, 0.5 mg/kg): 6.89 h
- AUC(0-inf) ([2]; male, 1.5 mg/kg): 192 ng·h/mL
- AUCTlast ([2]; male, 1.5 mg/kg): 183 ng·h/mL
- Cmax ([2]; male, 1.5 mg/kg): 18.0 ng/mL
- T1/2 ([2]; male, 1.5 mg/kg): 5.27 h
- Tmax ([2]; male, 1.5 mg/kg): 1.00 h
- AUC(0-inf) ([2]; male, 3 mg/kg): 518 ng·h/mL
- AUCTlast ([2]; male, 3 mg/kg): 476 ng·h/mL
- Cmax ([2]; male, 3 mg/kg): 42.7 ng/mL
- T1/2 ([2]; male, 3 mg/kg): 6.48 h
- Tmax ([2]; male, 3 mg/kg): 1.00 h
- AUCTlast ([2]; male, 5 mg/kg): 741 ng·h/mL
- T1/2 ([2]; male, 5 mg/kg): 7.67 h
